Like-named read-outs stand apart in the source and are kept apart here.
Assays:
platelet aggregation [1] = assay: Platelet aggregation inhibitory activity (ADP-induced, human platelet rich plasma); format: cell-based; settings: Homo sapiens
How it was run: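 Citrated human platelet-rich plasma […] was stirred with test compound for 2 min at 37 °C. Aggregation was then induced with ADP at 3 μg/ml final and monitored by nephelometry. IC50 is the concentration giving 50% inhibition of aggregation.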

human fibrinogen = biological target: T1, human fibrinogen (Homo sapiens, UniProt P05106+P08514); assay: Binding assay of platelet to adhesive protein: fibrinogen (receptor binding inhibition); settings: Table 4; fixed activated human platelets, 37° C., 60 minutes
T1 construct: centrifuged at 11000 rpm for two minutes to give human platelet; from tissue
Description: (§1) The blood was taken out from the elbow vein of a normal volunteer, and mixed with 1/10 volume of 3.8% sodium citrate. The blood was centrifuged at 1,000 rpm (150 g) for 10 minutes, and the supernatant is collected as a platelet rich plasma (PRP). The precipitates are centrifuged at 11,000 rpm (6000 g) for two minutes, and the supernatant is collected as a platelet poor plasma (PPP). To PRP is added prostaglandin I2 (PGl2) at a final concentration of 50 ng/ml, and the mixture was centrifuged at 11000 rpm for two minutes to give human platelet. The platelet was activated by washing with 3.8 mM HEPES-buffer (pH 7.4, Tyrode-HEPES buffer) containing 0.14 M sodium chloride, 2.7 mM potassium chloride, 3.7 mM sodium dihydrogen phosphate, 0.98 mM magnesium chloride, 1 mg/ml glucose, 50 ng/ml PGl2 and 0.35% bovine serum albumin (BSA), adding thereto 5 μM epinephrine, and 30 μM ADP (adenosine diphosphate), followed by being allowed to stand at room temperature for five minutes. To the activated platelet was added 0.05% p-formaldehyde, and the mixture was allowed to stand at room temperature for 30 minutes to give the fixed platelet, which was suspended in Tyrode-HEPES buffer to give a platelet suspension of a concentration of 2×10^8 ml^-1.
(§2) Human fibrinogen from which fibronectin was previously removed by passing through gelatin-cepharose, human fibronectin or human vitronectin was diluted with 0.1 M aqueous sodium hydrogen carbonate solution to a concentration of 5 μg/ml, and the protein solution is put into a 96-well microplate at a volume of 200 μl/well. The microplate was allowed to stand at 4° C. overnight. The plate was washed with phosphate buffered saline (PBS), and subjected to blocking with 3% BSA at 37° C. for one hour. To the plate were added a platelet suspension (final concentration, 10^8 ml^-1) and a test compound of various concentrations (total volume, 200 μl/well), and the plate was incubated at 37° C. for 60 minutes. The plate was treated with 1000-fold diluted enzyme (HRP)-labelled anti-mouse IgG polyclonal antibody at 37° C. for 60 minutes, and thereto was added HRP chromogenic substrate (0.1 M phosphate buffer containing 0.4 mg/ml O-phenylenediamine,0.01% hydrogen peroxide, 0.1 M citric acid, pH 5), and reacted at room temperature for 15 minutes. The reaction was terminated by adding thereto 4.5 M sulfuric acid at a volume of 25 μl/well, and the absorbance at 490 nm was measured.

human fibronectin = assay: Binding assay of platelet to adhesive protein: fibronectin (receptor binding inhibition); settings: Table 4; fixed activated human platelets, 37° C., 60 minutes
Description: as §1, §2

human vitronectin = assay: Binding assay of platelet to adhesive protein: vitronectin (receptor binding inhibition); settings: Table 4; fixed activated human platelets, 37° C., 60 minutes; read-out: receptor binding inhibition (IC50), Bitronectin
Description: as §1, §2

platelet aggregation [2] = assay: Platelet aggregation inhibitory activity (ex vivo) after oral administration; format: in vivo; settings: Cavia porcellus, guinea pig, oral 0.1 mg/kg, ADP 10 μg/ml
Description: A canula for collecting blood was inserted into the left common carotid artery of a guinea pig which was anesthetized with pentobarbital (30 mg/kg, i.p.). The blood (1 ml) was taken with a syringe containing 1/10 volume of 3.8% sodium citrate (Kettin-citrate, manufactured by Kokusai Shiyaku Ltd.), and the platelet aggregation ability thereof was measured (as a value before administration). Then, a test compound was orally administered to the guinea pig at a dose of 0.1 mg/kg in a volume of 5 ml/kg, and the blood was collected periodically likewise at 0.5, 1, 2, 4 and 6 hours after the administration of the test compound, and the platelet aggregation ability thereof was measured.
The determination of the platelet aggregation ability was carried out by turbidimetry using a Hematracer (Niko Bioscience) as follows. That is, the blood was centrifuged at 4500 rpm at room temperature for 10 seconds, and the supernatant was considered as platelet rich plasma (PRP), and the precipitate was centrifuged at 11000 rpm for two minutes and its supernatant was considered as platelet poor plasma (PPP), and the photo-transmittance of the PRP and the PPP was adjusted to 0%, and 100%, respectively. A cubet containing PRP (200 μl) was inserted to a measurement well, and […] at 1000 rpm at 37° C. for two minutes, and thereto was added a platelet aggregator; ADP (adenosine diphosphate, Sigma Ltd., 20 μl, final concentration; 10 μg/ml), and the maximum aggregation rate was measured. From the maximum aggregation rate before the administration of the test compound (MAR control) and the maximum aggregation rate after the administration of the test compound (MAR sample), the platelet aggregation inhibitory rate of each test compound was estimated according to the following equation.
Inhibitory rate (%)=(1-(MAR sample/MAR control))×100
The periodical change in the platelet aggregation inhibitory rate of each test compound at a dose of 0.1 mg/kg of oral administration is shown in Table 5.

[3] = Table 3, same manner as Example 17
[4] = 0.5 hr, read-out: platelet aggregation inhibitory rate (%), 0.5 hr
[5] = 1 hr, read-out: platelet aggregation inhibitory rate (%), 1 hr
[6] = 2 hrs, read-out: platelet aggregation inhibitory rate (%), 2 hrs
[7] = 4 hrs, read-out: platelet aggregation inhibitory rate (%), 4 hrs
[8] = 6 hrs, read-out: platelet aggregation inhibitory rate (%), 6 hrs
[9] = Table 2, same manner as Example 17

T1 sequence (P08514 32-887 limits assumed): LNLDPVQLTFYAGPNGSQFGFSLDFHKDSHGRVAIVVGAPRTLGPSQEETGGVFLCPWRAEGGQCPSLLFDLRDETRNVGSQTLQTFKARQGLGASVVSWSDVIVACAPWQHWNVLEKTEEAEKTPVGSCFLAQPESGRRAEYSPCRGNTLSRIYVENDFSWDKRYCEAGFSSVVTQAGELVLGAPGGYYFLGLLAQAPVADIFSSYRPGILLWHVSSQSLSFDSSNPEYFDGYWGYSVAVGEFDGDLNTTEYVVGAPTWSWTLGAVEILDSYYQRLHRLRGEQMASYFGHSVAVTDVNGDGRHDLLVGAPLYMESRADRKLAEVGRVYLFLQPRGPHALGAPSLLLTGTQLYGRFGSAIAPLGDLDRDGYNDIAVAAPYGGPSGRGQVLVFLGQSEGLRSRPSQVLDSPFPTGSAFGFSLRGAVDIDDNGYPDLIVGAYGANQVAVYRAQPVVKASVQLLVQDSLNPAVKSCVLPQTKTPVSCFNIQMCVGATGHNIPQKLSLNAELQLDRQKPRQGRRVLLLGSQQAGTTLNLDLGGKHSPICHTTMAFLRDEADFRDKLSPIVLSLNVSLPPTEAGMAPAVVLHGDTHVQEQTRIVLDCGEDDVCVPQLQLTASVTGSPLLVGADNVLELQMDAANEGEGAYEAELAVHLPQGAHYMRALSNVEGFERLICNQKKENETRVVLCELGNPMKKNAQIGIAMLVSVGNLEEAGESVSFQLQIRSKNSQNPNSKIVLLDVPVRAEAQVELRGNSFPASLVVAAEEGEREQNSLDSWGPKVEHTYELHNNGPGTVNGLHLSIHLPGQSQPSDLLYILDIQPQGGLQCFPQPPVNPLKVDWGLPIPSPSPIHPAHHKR
T1 sequence (P08514 891-1039 limits assumed): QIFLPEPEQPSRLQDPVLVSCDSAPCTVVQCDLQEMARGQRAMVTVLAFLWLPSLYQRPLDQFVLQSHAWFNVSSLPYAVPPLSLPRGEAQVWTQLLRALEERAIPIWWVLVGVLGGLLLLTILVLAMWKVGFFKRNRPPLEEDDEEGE
T1 sequence (P05106 27-788): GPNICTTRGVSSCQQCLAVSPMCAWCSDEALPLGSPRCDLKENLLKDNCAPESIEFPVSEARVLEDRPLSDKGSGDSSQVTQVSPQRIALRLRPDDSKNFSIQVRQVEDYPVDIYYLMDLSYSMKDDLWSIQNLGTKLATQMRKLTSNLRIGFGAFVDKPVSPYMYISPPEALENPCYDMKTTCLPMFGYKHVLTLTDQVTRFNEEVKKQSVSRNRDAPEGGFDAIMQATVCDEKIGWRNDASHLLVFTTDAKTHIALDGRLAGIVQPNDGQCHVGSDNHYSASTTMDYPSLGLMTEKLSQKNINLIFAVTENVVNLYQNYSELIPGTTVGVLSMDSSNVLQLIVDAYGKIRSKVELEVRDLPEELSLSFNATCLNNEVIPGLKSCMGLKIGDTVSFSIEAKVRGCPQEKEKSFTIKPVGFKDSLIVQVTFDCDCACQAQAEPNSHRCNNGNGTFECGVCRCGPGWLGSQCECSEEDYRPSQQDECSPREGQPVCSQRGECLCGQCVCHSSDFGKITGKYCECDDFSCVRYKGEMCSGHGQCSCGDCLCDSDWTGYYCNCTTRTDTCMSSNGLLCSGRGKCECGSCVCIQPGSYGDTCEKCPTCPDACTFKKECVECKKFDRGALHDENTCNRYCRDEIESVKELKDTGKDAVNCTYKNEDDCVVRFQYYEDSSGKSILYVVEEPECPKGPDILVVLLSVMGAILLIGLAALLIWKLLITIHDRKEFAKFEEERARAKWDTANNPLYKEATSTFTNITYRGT

SMILES | IC50 (platelet aggregation [1]; [3]) [nM] | IC50 (human fibrinogen) [nM] | IC50 (human fibronectin) [nM] | IC50 (human vitronectin) [nM] | IC50 (platelet aggregation [1]; [9]) [nM] | inhibition in vivo at 0.1 mg/kg (platelet aggregation [2]; [4]) [%] | inhibition in vivo at 0.1 mg/kg (platelet aggregation [2]; [5]) [%] | inhibition in vivo at 0.1 mg/kg (platelet aggregation [2]; [6]) [%] | inhibition in vivo at 0.1 mg/kg (platelet aggregation [2]; [7]) [%] | inhibition in vivo at 0.1 mg/kg (platelet aggregation [2]; [8]) [%]
N=C(N)c1ccc(C(=O)NCCC(=O)NC[C@H](NS(=O)(=O)c2ccccc2[N+](=O)[O-])C(=O)O)cc1 [Example 77, (2S)-3-(3-(4-amidinobenzoylamino)propanoylamino)-2-(2-nitro)benzenesulfonylaminopropanoic Acid] | 65 | 6.7 | 54 | 670 | – | 100 | 100 | 100 | 100 | 97
Cc1cc(C)c(S(=O)(=O)N[C@@H](CNC(=O)CCNC(=O)c2ccc(C(=N)N)cc2)C(=O)O)c(C)c1 [Example 19, (2S)-3-(3-(4-amidinobenzoylamino)propanoylamino)-2-(2,4,6-trimethyl)benzenesulfonylaminopropanoic Acid] | – | 5 | 47 | 1200 | 30 | 86 | 93 | 91 | 89 | 91
COc1ccc(S(=O)(=O)N[C@@H](CNC(=O)CCNC(=O)c2ccc(C(=N)N)cc2)C(=O)O)cc1 [Example 18, (2S)-3-(3-(4-amidinobenzoylamino)propanoylamino)-2-(4-methoxy)benzenesulfonylaminopropanoic Acid] | – | 7.3 | 400 | 8900 | 33 | 54 | 100 | 100 | 73 | 66
N=C(N)c1ccc(N2CCC(CC(=O)NC[C@H](NS(=O)(=O)c3ccccc3)C(=O)O)CC2)cc1 [Example 69, (2S)-3-(2-(1-(4-amidinophenyl)-4-piperidyl)ethanoylamino)-2-benzenesulfonylaminopropanoic Acid] | – | 9.8 | 60 | 970 | 29 | 69 | 39 | 22 | 6 | 3
CCc1ccc(S(=O)(=O)N[C@@H](CNC(=O)CCNC(=O)c2ccc(C(=N)N)cc2)C(=O)O)cc1 [Example 80, (2S)-3-(3-(4-amidinobenzoylamino)propanoylamino)-2-(4-ethyl)benzenesulfonylaminopropanoic Acid] | 17 | 10 | 390 | 4900 | – | 100 | 100 | 75 | 79 | 74
Cc1cccc(S(=O)(=O)N[C@@H](CNC(=O)CCNC(=O)c2ccc(C(=N)N)cc2)C(=O)O)c1 [Example 75, (2S)-3-(3-(4-amidinobenzoylamino)propanoylamino)-2-(3-methyl)benzenesulfonylaminopropanoic Acid] | 34 | 8.1 | 110 | 1600 | – | 74 | 82 | 100 | 90 | 74
N=C(N)c1ccc(OCCCC(=O)NC[C@H](NS(=O)(=O)c2cccc3ccccc23)C(=O)O)cc1 [Example 62, (2S)-3-(4-(4-amidinophenoxy)butanoylamino)-2-(1-naphthalene)sulfonylaminopropanoic Acid] | – | 1.1 | 4.5 | 240 | 26 | 63 | 69 | 63 | 56 | 50
N=C(N)c1ccc(OCCCC(=O)NC[C@H](NS(=O)(=O)c2ccc(F)cc2)C(=O)O)cc1 [Example 61, (2S)-3-(4-(4-amidinophenoxy)butanoylamino)-2-(4-fluoro)benzenesulfonylaminopropanic Acid] | – | 1 | 25 | 380 | 24 | 45 | 32 | 25 | 48 | 0

More lines, main results first:

IC50 (platelet aggregation [1]; [3]) [nM] | IC50 (human fibrinogen) [nM] | IC50 (human fibronectin) [nM] | IC50 (human vitronectin) [nM] | IC50 (platelet aggregation [1]; [9]) [nM] | SMILES | inhibition in vivo at 0.1 mg/kg (platelet aggregation [2]; [4]) [%] | inhibition in vivo at 0.1 mg/kg (platelet aggregation [2]; [5]) [%] | inhibition in vivo at 0.1 mg/kg (platelet aggregation [2]; [6]) [%] | inhibition in vivo at 0.1 mg/kg (platelet aggregation [2]; [7]) [%] | inhibition in vivo at 0.1 mg/kg (platelet aggregation [2]; [8]) [%]
23 | 4.7 | 50 | 1300 | – | N=C(N)c1ccc(CCCCCC(=O)NC[C@H](NS(=O)(=O)c2ccccc2)C(=O)O)cc1 [Example 91, (2S)-3-(6-(4-amidinophenyl)hexanoylamino)-2-benzenesulfonylaminopropanoic Acid] | 51 | 41 | 31 | 14 | 39
25 | 12 | 210 | 2700 | – | Cc1cc(C)c(S(=O)(=O)N[C@@H](CNC(=O)CCCCc2ccc(C(=N)N)cc2)C(=O)O)c(C)c1 [Example 87, (2S)-3-(5-(4-amidinophenyl)pentanoylamino)-2-(2,4,6-trimethyl)benzenesulfonylaminopropanoic Acid] | 100 | 100 | 100 | 100 | 80
56 | 1.1 | 120 | 500 | – | Cc1cc(C)c(S(=O)(=O)N[C@@H](CNC(=O)CCCCOc2ccc(C(=N)N)cc2)C(=O)O)c(C)c1 [Example 86, (2S)-3-(5-(4-amidinophenoxy)pentanoylamino)-2-(2,4,6-trimethyl)benzenesulfonylaminopropanoic Acid] | 46 | 0 | 0 | 0 | 0
